Activity calls are given as the source filed them. The calls are words filed in the database; no cut-off is given here.
Key:
[1] = target: T1, Serine hydrolase RBBP9 (Homo sapiens, UniProt O75884); assay: Displacement of fluorophosphate-rhodamine from RBBP9 transfected in human HEK293T cells proteomes at 20 uM after 30 mins by SDS-PAGE gel fluorescence assay; type: cell-based; conditions: HEK-293T
Target sequence in this assay (O75884 whole entry, looked up): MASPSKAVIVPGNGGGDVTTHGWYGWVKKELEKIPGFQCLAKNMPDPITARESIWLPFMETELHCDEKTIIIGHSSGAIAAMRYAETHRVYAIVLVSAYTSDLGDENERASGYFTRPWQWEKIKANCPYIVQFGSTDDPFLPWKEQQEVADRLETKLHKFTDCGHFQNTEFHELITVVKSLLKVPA

[2] = target: T1, Serine hydrolase RBBP9; assay: Displacement of fluorophosphate-rhodamine from RBBP9 transfected in human HEK293T cells proteomes after 30 mins by SDS-PAGE gel fluorescence assay; type: cell-based, HEK-293T
Target sequence in this assay (O75884 whole entry): as the sequence (O75884 whole entry, looked up) above

[3] = target: T1, Serine hydrolase RBBP9; assay: Displacement of fluorophosphate-rhodamine from recombinant RBBP9 transfected in mouse brain membrane proteomes after 30 mins by SDS-PAGE gel fluorescence assay; type: cell membranes
Target sequence in this assay (O75884 whole entry): as the sequence (O75884 whole entry, looked up) above

[4] = target: T1, Serine hydrolase RBBP9; assay: Displacement of fluorophosphate-rhodamine from recombinant RBBP9 transfected in mouse brain membrane proteomes at 200 uM after 30 mins by SDS-PAGE gel fluorescence assay; type: cell membranes
Target sequence in this assay (O75884 whole entry, looked up): as above

[5] = target: T1, Serine hydrolase RBBP9; assay: Displacement of fluorophosphate-rhodamine from RBBP9 transfected in human HEK293T cells proteomes at 7.9 uM after 30 mins by SDS-PAGE gel fluorescence assay; type: cell-based; conditions: HEK-293T
Target sequence in this assay (O75884 whole entry, looked up): as above

[6] = target: T1, Serine hydrolase RBBP9; assay: Displacement of phenylsulphonate-rhodamine from RBBP9 transfected in human MDA-MB-231 cells proteomes after 30 mins by SDS-PAGE gel fluorescence assay; type: cell-based
Target sequence in this assay (O75884 whole entry, looked up): as above

[7] = target: T2, Glutathione S-transferase omega-1 (Homo sapiens) (UniProt P78417); assay: Displacement of phenylsulphonate-rhodamine from GSTO1 in human MDA-MB-231 cells proteomes at 20 uM after 30 mins by SDS-PAGE gel fluorescence assay; type: cell-based
T2 sequence (whole entry): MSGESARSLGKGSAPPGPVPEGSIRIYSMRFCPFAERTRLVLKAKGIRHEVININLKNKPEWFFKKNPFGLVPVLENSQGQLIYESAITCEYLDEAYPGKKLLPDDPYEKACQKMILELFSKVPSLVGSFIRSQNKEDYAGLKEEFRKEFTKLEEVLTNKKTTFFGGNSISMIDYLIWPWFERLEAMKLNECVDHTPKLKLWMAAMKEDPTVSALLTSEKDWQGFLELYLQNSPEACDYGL

C/C(=N\OC(=O)N1CCCCC1)c1nccs1
inhibition [1]: 0%

C/C(=N\OC(=O)c1ccccc1F)c1nccs1
inhibition [1]: 64%

CC[C@H]1CN2CCc3cc(OC)c(OC)cc3[C@@H]2C[C@@H]1CC1NCCc2cc(OC)c(OC)cc21 (single isomer, unassigned) [EMETINE]
IC50 ([2]; hek-293t): 7800 nM

COc1ccc(C(=O)ON=C2C(C)=CC(=O)C=C2C)cc1
inhibition [1]: 48%

COc1ccc(C(=O)ON=C2C=C(C)C(=O)C(C)=C2)cc1
IC50 [2]: 1500 nM
IC50 [3]: 1500 nM
inhibition [1]: 93%

C/C(=N\OC(=O)c1c(-c2c(F)cccc2Cl)noc1C)c1nccs1
inhibition [1]: 14%

C/C(=N\OC(=O)c1cccc(C(F)(F)F)c1)c1nccs1
inhibition [1]: 46%

C/C(=N\OC(=O)/C=C/c1ccccc1)c1nccs1
inhibition [1]: 42%

COc1ccc(C(=O)O/N=C2/C=C(C)C(=O)C=C2C)cc1
inhibition [1]: 76%

C/C(=N\OC(=O)C1CCCCC1)c1nccs1
IC50 [2]: 640 nM
inhibition [1]: 91%

C/C(=N\OC(=O)c1c(-c2ccccc2Cl)noc1C)c1nccs1
inhibition [1]: 17%

C/C(=N\OC(=O)c1ccccc1)c1nccs1
inhibition [1]: 62%

C/C(=N\OC(=O)c1ccc(Cl)cc1)c1nccs1
IC50 [2]: 1900 nM
Activity [4]: inactive
inhibition [5]: 80%
inhibition [1]: 78%
inhibition [6]: inactive

C/C(=N\OC(=O)c1ccc(-c2ccccc2)cc1)c1nccs1
inhibition [1]: 4%

C/C(=N\OC(=O)c1cc(F)ccc1F)c1nccs1
inhibition [1]: 66%

C/C(=N\OC(=O)c1cccc(Cl)c1)c1nccs1
inhibition [1]: 63%

C/C(=N\OC(=O)c1c(-c2c(Cl)cccc2Cl)noc1C)c1nccs1
inhibition [1]: 8%

CC(=O)O/N=C(\C)c1nccs1
inhibition [1]: 0%

C/C(=N\OC(=O)c1ccc(F)cc1)c1nccs1
IC50 [2]: 5700 nM
inhibition [1]: 76%

COc1ccc(C(=O)O/N=C(\C)c2nccs2)cc1
IC50 [2]: 9200 nM
inhibition [5]: 39%
inhibition [1]: 60%
inhibition [6]: inactive

C#CCCC(=O)O/N=C(\C)c1nccs1
inhibition [1]: 42%

CC1=CC(=NOC(=O)/C=C/c2ccccc2)C=C(C)C1=O
IC50 [2]: 1200 nM
inhibition [7]: Active
inhibition [5]: 79%
inhibition [1]: 78%

C/C(=N\OC(=O)c1ccc(I)cc1)c1nccs1
inhibition [1]: 66%

C/C(=N\OC(=O)c1ccc([N+](=O)[O-])cc1)c1nccs1
inhibition [1]: 15%

— ChEMBL document CHEMBL1156321, “Oxime esters as selective, covalent inhibitors of the serine hydrolase retinoblastoma-binding protein 9 (RBBP9)” (Bioorg Med Chem Lett, 2010)
